Laboratory results from ChEMBL document CHEMBL1201862, “PubChem BioAssay data set” (2004).
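Values below derive from 48-hour exposures of cells grown in 96-well plates, with endpoints linearly interpolated between the two concentrations bracketing the appropriate inhibition level. GI50: concentration for 50% inhibition of growth.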 Active and inactive are the calls of the source. Cut-off read from the data, not from the text of the source: active = GI50 up to about 1.1 µM and inactive = higher.

Assays:
Assay in all cases: NCI tumour cell line growth inhibition, 48 h
T47D = test system: T47D
TK-10 = test system: TK-10
EKVX = test system: EKVX
OVCAR-4 = test system: OVCAR-4
UACC-257 = test system: UACC-257
MOLT-4 = test system: MOLT-4
HOP-62 = test system: HOP-62
SW-620 = test system: SW-620
M14 = test system: M14
IGROV-1 = test system: IGROV-1
KM12 = test system: KM12
OVCAR-5 = test system: OVCAR-5
NCI-H226 = test system: NCI-H226
SNB-19 = test system: SNB-19
HCC 2998 = test system: HCC 2998
SF-295 = test system: SF-295
CAKI-1 = test system: CAKI-1
MCF7 = test system: MCF7
NCI/ADR-RES = test system: NCI/ADR-RES
SNB-75 = test system: SNB-75
SN12C = test system: SN12C
SF-268 = test system: SF-268
HT-29 = test system: HT-29
MDA-MB-231 = test system: MDA-MB-231
SK-MEL-5 = test system: SK-MEL-5
NCI-H23 = test system: NCI-H23
SK-MEL-2 = test system: SK-MEL-2
MDA-N = test system: MDA-N
SK-MEL-28 = test system: SK-MEL-28
NCI-H460 = test system: NCI-H460
SK-OV-3 = test system: SK-OV-3
BT-549 = test system: BT-549
LOX IMVI = test system: LOX IMVI
DU-145 = test system: DU-145
OVCAR-3 = test system: OVCAR-3
HCT-15 = test system: HCT-15
HCT-116 = test system: HCT-116
U-251 = test system: U-251
SR = test system: SR
NCI-H522 = test system: NCI-H522
ACHN = test system: ACHN
PC-3 = test system: PC-3
786-0 = test system: 786-0
RXF 393 = test system: RXF 393
CCRF-CEM = test system: CCRF-CEM
UO-31 = test system: UO-31
COLO 205 = test system: COLO 205
MDA-MB-435 = test system: MDA-MB-435
UACC-62 = test system: UACC-62
K562 = test system: K562
A549 = test system: A549
SF-539 = test system: SF-539

COc1ccc(C2(CC(C)C)CCN(S(=O)(=O)c3ccc(C)cc3)C2)cc1OC (configuration not stated)
GI50 (T47D): 14.4 µM (inactive)
GI50 (TK-10): 63.5 µM (inactive)
GI50 (EKVX): 76.9 µM (inactive)
GI50 (OVCAR-4): 27.3 µM (inactive)
GI50 (UACC-257): 28.5 µM (inactive)
GI50 (MOLT-4): 2.94 µM (inactive)
GI50 (HOP-62): 45.5 µM (inactive)
GI50 (SW-620): 99.5 µM (inactive)
GI50 (M14): 34.8 µM (inactive)
GI50 (IGROV-1): 50.2 µM (inactive)
GI50 (KM12): 23.3 µM (inactive)
GI50 (OVCAR-5): > 100 µM (inactive)
GI50 (NCI-H226): 22.5 µM (inactive)
GI50 (SNB-19): 49.7 µM (inactive)
GI50 (HCC 2998): 27.6 µM (inactive)
GI50 (SF-295): 36.5 µM (inactive)
GI50 (CAKI-1): > 100 µM (inactive)
GI50 (MCF7): 32.2 µM (inactive)
GI50 (NCI/ADR-RES): 18.5 µM (inactive)
GI50 (SNB-75): 36.9 µM (inactive)
GI50 (SN12C): > 100 µM (inactive)
GI50 (SF-268): 21.9 µM (inactive)
GI50 (HT-29): 35.6 µM (inactive)
GI50 (MDA-MB-231): > 100 µM (inactive)
GI50 (SK-MEL-5): 13.6 µM (inactive)
GI50 (NCI-H23): 29.8 µM (inactive)
GI50 (SK-MEL-2): 20.7 µM (inactive)
GI50 (MDA-N): 70.8 µM (inactive)
GI50 (SK-MEL-28): 30.1 µM (inactive)
GI50 (NCI-H460): 29.2 µM (inactive)
GI50 (SK-OV-3): 36.9 µM (inactive)
GI50 (BT-549): 71.1 µM (inactive)
GI50 (LOX IMVI): 19.5 µM (inactive)
GI50 (DU-145): 36 µM (inactive)
GI50 (OVCAR-3): 18.9 µM (inactive)
GI50 (HCT-15): 31.7 µM
GI50 (HCT-116): 20.2 µM (inactive)
GI50 (U-251): 36.2 µM (inactive)
GI50 (SR): 1.11 µM (active)
GI50 (NCI-H522): 25.8 µM (inactive)
GI50 (ACHN): 36.6 µM (inactive)
GI50 (PC-3): 28.5 µM (inactive)
GI50 (786-0): 27.8 µM (inactive)
GI50 (RXF 393): 34 µM (inactive)
GI50 (CCRF-CEM): 17.9 µM (inactive)
GI50 (UO-31): 41.6 µM (inactive)
GI50 (COLO 205): 25.8 µM (inactive)
GI50 (MDA-MB-435): 21.8 µM (inactive)
GI50 (UACC-62): 43.9 µM (inactive)
GI50 (K562): 2.88 µM (inactive)
GI50 (A549): 27.2 µM (inactive)
GI50 (SF-539): 37 µM (inactive)
